{"source": "patent US20140296484A1", "about": "“Cyclin Based Inhibitors of CDK2 and CDK4” (University of South Carolina, priority 2013, published 2014)", "key": {"[1]": {"molecular_target": "CDK2/cyclin A (Homo sapiens, UniProt P20248)", "assay": "Fluorescence polarization (FP) competitive binding assay", "protocol": "(§1) Once the compounds were characterized, their binding affinities were tested by FP assay."}, "[2]": {"molecular_target": "T1, CDK4/Cyclin D1 (Homo sapiens, UniProt P24385)", "T1 sequence (P24385 whole entry)": "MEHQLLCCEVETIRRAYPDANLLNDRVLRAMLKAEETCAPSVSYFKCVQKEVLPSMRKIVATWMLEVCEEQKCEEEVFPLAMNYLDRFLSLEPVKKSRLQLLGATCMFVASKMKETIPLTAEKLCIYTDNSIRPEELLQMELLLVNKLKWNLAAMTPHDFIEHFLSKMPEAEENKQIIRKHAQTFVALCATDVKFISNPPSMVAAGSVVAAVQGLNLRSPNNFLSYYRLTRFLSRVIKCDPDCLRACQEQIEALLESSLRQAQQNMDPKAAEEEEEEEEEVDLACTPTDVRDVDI", "T1 sequence (P11802 whole entry partner)": "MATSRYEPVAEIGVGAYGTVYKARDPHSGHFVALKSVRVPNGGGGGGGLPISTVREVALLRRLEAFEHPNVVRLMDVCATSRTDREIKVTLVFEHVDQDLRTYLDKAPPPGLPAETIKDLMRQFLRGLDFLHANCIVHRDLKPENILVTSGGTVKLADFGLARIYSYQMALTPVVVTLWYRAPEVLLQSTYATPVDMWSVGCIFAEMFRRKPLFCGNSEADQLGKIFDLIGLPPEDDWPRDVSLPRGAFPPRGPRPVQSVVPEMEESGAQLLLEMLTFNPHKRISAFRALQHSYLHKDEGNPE", "assay": "Fluorescence polarization (FP) competitive binding assay", "protocol": "(§2) In order to assess the contribution of the PLA H-bond acceptor, analogous compounds were made in each series and activities for the 4-chloro and 3,5-dichloro analog were evaluated in each context.\n(§3) Several additional analogs were synthesized in addition to the 3,5 dichloro and 4-chlorophenyl analogs. In addition to determining their inhibition of CDK2/cyclin A, the availability of the CDK4/cyclin D1 binding assay was exploited to develop SAR for both kinases.\nas §1"}, "[3]": {"molecular_target": "T1, CDK4/Cyclin D1", "assay": "In vitro kinase assay, 32P filter capture with GST-Rb substrate", "type": "biochemical", "details": "for pIC50: kinase assay"}, "[4]": {"assay": "Fluorescence polarization (FP) competitive binding assay", "details": "Table 20; read-out: CDK2/Cyclin A IC050", "protocol": "as §2, §3, §1"}, "[5]": {"molecular_target": "CDK2/Cyclin A2 (Homo sapiens, UniProt P20248)", "assay": "In vitro kinase assay, 32P filter capture with GST-Rb substrate", "type": "biochemical"}, "[6]": {"details": "competitive binding (FP) assay, read-out: CDK2/Cyclin A IC50"}, "[7]": {"details": "competitive binding (FP) assay, read-out: CDK4/Cyclin D1 IC50"}, "[8]": {"details": "Table 15, read-out: CDK2/Cyclin D1 IC50"}, "[9]": {"details": "Table 10, Scaffold III N-caps on the peptide link, read-out: IC50 CDK2/A2"}}, "note": "pIC50: −log10 of the molar value. Values joined by “and” are separate entries in the source; they are usually repeats but may differ in a detail not shown here. Equal values may be shown once. Read-outs that look alike come from different tables or passages of the source. Where a SMILES comes first, the peptide text is derived from it. Where no end group is shown, it is not given here. [ ]: non-standard residue; d: D form. The star is where a group is joined. X5 = Cc1nc(C(=O)*)nn1-c1cc(Cl)cc(Cl)c1; X1 = Cc1nc(C(=O)*)nn1-c1ccc(Cl)cc1; 3Thi = N[C@@H](Cc1ccsc1)C(=O)O; Cba = N[C@@H](CC1CCC1)C(=O)O"}
{"compound": "CC[C@H](C)[C@H](NC(=O)[C@H](CC(C)C)NC(=O)[C@H](CCCNC(=N)N)NC(=O)c1nc(C)n(-c2ccc(Cl)cc2)n1)C(=O)N[C@@H](Cc1ccccc1)C(=O)O", "note": "[SCCP 5774] (X1-RLIF-OH)", "values": [{"measurement": "pIC50", "setting": "[1]; [6]", "value": 4.60}, {"measurement": "pIC50", "setting": "[2]; [7]", "value": 4.96}]}
{"compound": "Cc1nc(C(=O)NC(CCCNC(=N)N)C(=O)NC(CC(C)C)C(=O)NCCCc2ccccc2)nn1-c1cc(Cl)cc(Cl)c1", "note": "(stereo not drawn) [compound 6004]", "values": [{"measurement": "pIC50", "setting": "[1]; [6]", "value": 4.24}, {"measurement": "pIC50", "setting": "[2]; [8]", "value": "< 3.74"}]}
{"compound": "CC[C@H](C)[C@H](NC(=O)[C@H](CC(C)C)NC(=O)[C@H](CCCNC(N)=O)NC(=O)[C@@H](N)CCCNC(=N)N)C(=O)N[C@@H](Cc1ccccc1)C(N)=O", "note": "[RCitLIF]", "values": [{"measurement": "pIC50", "setting": "[3]", "value": 3.75}]}
{"compound": "CCCOc1ccc(C)cc1C(CC(C)C)NC(=O)C(CCCCNC(=N)N)NC(=O)c1nc(C)n(-c2cc(Cl)cc(Cl)c2)n1", "note": "(stereo not drawn) [compound 5980]", "values": [{"measurement": "pIC50", "setting": "[1]; [6]", "value": "< 3.74"}, {"measurement": "pIC50", "setting": "[4]", "value": "< 3.74"}]}
{"compound": "COc1ccccc1CC(CC(C)C)NC(=O)C(CCCCNC(=N)N)NC(=O)c1nc(C)n(-c2cc(Cl)cc(Cl)c2)n1", "note": "(single isomer, unassigned) [compound 5981]", "values": [{"measurement": "pIC50", "setting": "[1]; [6]", "value": "< 3.74"}, {"measurement": "pIC50", "setting": "[4]", "value": "< 3.74"}]}
{"compound": "H-SAKRALFGM-NH2", "values": [{"measurement": "pIC50", "setting": "[3]", "value": 4.17}]}
{"compound": "CC[C@H](C)[C@H](NC(=O)[C@H](CC(C)C)NC(=O)[C@H](CCCNC(=N)N)NC(=O)[C@@H](N)CCCNC(N)=O)C(=O)N[C@@H](Cc1ccccc1)C(N)=O", "note": "[CitRLIF, Cit-RLIF]", "values": [{"measurement": "pIC50", "setting": "[3]", "value": 3.75}]}
{"compound": "CC(C)C[C@@H](CC(=O)NCc1cccc(Oc2ccccc2)c1)NC(=O)[C@H](CCCNC(=N)N)NC(=O)[C@@H](N)CCCNC(=N)N", "note": "[SCCP 5624, Arg-Arg-β-homoleucyl-3-phenoxybenzylamid]", "values": [{"measurement": "selectivity", "setting": "[3]; CDK4/cyclin D1 vs CDK2/cyclin A", "value": "selective for CDK4/cyclin D1"}]}
{"compound": "CC[C@H](C)[C@H](NC(=O)[C@H](CC(C)C)NC(=O)[C@H](CCCNC(=N)N)NC(=O)[C@H](CCCNC(=N)N)NC(=O)[C@H](CCCCN)NC(=O)[C@H](C)NC(=O)[C@@H](N)Cc1c[nH]cn1)C(=O)N[C@@H](Cc1ccsc1)C(N)=O", "note": "[HAKRRLIX3] (H-HAKRRLI[3Thi]-NH2)", "values": [{"measurement": "pIC50", "setting": "[5]", "value": 4.60}]}
{"compound": "CC[C@H](C)[C@H](NC(=O)[C@H](CC(C)C)NC(=O)[C@H](CCCNC(=N)N)NC(=O)c1nc(C)n(-c2cc(Cl)cc(Cl)c2)n1)C(=O)N[C@@H](Cc1ccccc1)C(=O)O", "note": "[SCCP 5773, 1-(3,5-dichlorophenyl)-5-methyl-1H-1,2,4-triazole-3-carbonyl-RLIF] (X5-RLIF-OH)", "values": [{"measurement": "pIC50", "setting": "[1]; [6]", "value": 4.92}, {"measurement": "pIC50", "setting": "[2]; [7]", "value": 4.57}]}
{"compound": "5919 (RLIF) [compound 5919]", "values": [{"measurement": "pIC50", "setting": "[1]; [9]", "value": 4.78}]}
{"compound": "CCN(CCc1ccccc1)C(=O)CC(CC(C)C)NC(=O)[C@H](CCCNC(=N)N)NC(=O)c1nc(C)n(-c2cc(Cl)cc(Cl)c2)n1", "note": "(stereo partly drawn) [SCCP 6003]", "values": [{"measurement": "pIC50", "setting": "[1]; [6]", "value": 4.07}]}
{"compound": "CC[C@H](C)[C@H](NC(=O)[C@H](CC(C)C)NC(=O)[C@H](CCCNC(=N)N)NC(=O)[C@H](CCCNC(=N)N)NC(=O)[C@H](CCCCN)NC(=O)[C@H](C)NC(=O)[C@@H](N)Cc1c[nH]cn1)C(=O)N[C@@H](CC1CCC1)C(N)=O", "note": "[HAKRRLIX4] (H-HAKRRLI[Cba]-NH2)", "values": [{"measurement": "pIC50", "setting": "[5]", "value": 4.60}, {"measurement": "pIC50", "setting": "[3]", "value": 4.00}]}
{"compound": "CCOc1ccccc1C(CC(C)C)NC(=O)C(CCCCNC(=N)N)NC(=O)c1nc(C)n(-c2cc(Cl)cc(Cl)c2)n1", "note": "(stereo not drawn) [compound 5984]", "values": [{"measurement": "pIC50", "setting": "[1]; [6]", "value": "< 3.74"}, {"measurement": "pIC50", "setting": "[4]", "value": "< 3.74"}]}
{"compound": "N=C(N)NCCCC(NC(=O)c1ccccc1)C(=O)Nc1ccc2ccccc2c1", "note": "(stereo not drawn) [N-(5-guanidino-1-(naphthalen-2-ylamino)-1-oxopentan-2-yl)benzamide]", "values": [{"measurement": "binding in the FP assay", "setting": "[1]; cyclin not specified (Cyclin A and D1 expected)", "value": "weakly binding"}]}
{"compound": "5920 (RLIF; also: OH in table column, meaning not given here) [compound 5920]", "values": [{"measurement": "pIC50", "setting": "[1]; [9]", "value": 5.23}]}
{"compound": "CCN(Cc1ccccc1)C(=O)CC(CC(C)C)NC(=O)[C@H](CCCNC(=N)N)NC(=O)c1nc(C)n(-c2cc(Cl)cc(Cl)c2)n1", "note": "(stereo partly drawn) [compound 6001]", "values": [{"measurement": "pIC50", "setting": "[1]; [6]", "value": "< 3.74"}, {"measurement": "pIC50", "setting": "[2]; [8]", "value": "< 3.74"}]}
{"compound": "5921 (RLIF; also: C7H16N2 group attached) [compound 5921]", "values": [{"measurement": "pIC50", "setting": "[1]; [9]", "value": "5.22 and 5.18"}]}
{"compound": "CC[C@H](C)[C@H](NC(=O)[C@H](CC(C)C)NC(=O)[C@H](CCCNC(=N)N)NC(=O)c1nc(C)n(-c2cc(Cl)cc(Cl)c2)n1)C(=O)NCc1cccc(Oc2ccccc2)c1", "note": "[SCCP10]", "values": [{"measurement": "pIC50", "setting": "[3]", "value": 5.10}]}
